From patent US4981856A, “Anti-tumor agents” (Imperial Chemical Industries PLC, priority 1987, dated 1991)

Legend:
humans = conditions: particularly in relation to the liver and kidney; cited from earlier work
thymidylate synthetase = thymidylate synthetase (Mus musculus, UniProt P07607); test: inhibitory effect on the enzyme thymidylate synthetase in vitro; type: biochemical; conditions: in vitro enzyme inhibition; read-out: IC50 against thymidylate synthetase
Source text: (§1) Compounds of this type are believed to act as anti-tumour agents by inhibiting the enzyme thymidylate synthetase. Their anti-tumour activity may be assessed in vitro by determining their inhibitory effect on that enzyme, and in cell cultures by their inhibitory effect on the cell line L1210.
(§2) As also stated above a quinazoline of the invention is believed to act as an anti-tumour agent by inhibiting the enzyme thymidylate synthetase. This anti-tumour activity may be assessed in vitro by determining the inhibitory effect on that enzyme and is cell cultures by the inhibitory effect on the mouse leukaemia cell line L1210 (UK Patent Specification No. 2065653B).

L1210 cell line = test: inhibitory effect on the mouse leukaemia cell line L1210 in cell culture; type: cell-based; conditions: read-out: IC50 against the L1210 cell line
Source text: as §1, §2

Sequence of thymidylate synthetase (P07607 whole entry): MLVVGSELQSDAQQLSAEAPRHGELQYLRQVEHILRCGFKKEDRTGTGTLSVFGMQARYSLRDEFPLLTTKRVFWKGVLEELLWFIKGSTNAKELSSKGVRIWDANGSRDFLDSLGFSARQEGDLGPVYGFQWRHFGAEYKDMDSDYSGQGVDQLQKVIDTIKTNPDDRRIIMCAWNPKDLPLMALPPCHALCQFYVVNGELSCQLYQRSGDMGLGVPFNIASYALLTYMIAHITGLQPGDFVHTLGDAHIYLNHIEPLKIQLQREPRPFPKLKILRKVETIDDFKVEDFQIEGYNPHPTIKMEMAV

In the case of `C#CCN(Cc1ccc2nc(N)[nH]c(=O)c2c1)c1ccc(C(=O)N[C@@H](CCC(=O)O)C(=O)O)cc1` [CB3717], the “symptoms of toxicity in humans” value (humans) is given as “shows symptoms of toxicity in humans, particularly in relation to the liver and kidney”.

`C#CCN(Cc1cc2c(=O)[nH]c(C)nc2cc1C)c1ccc(C(=O)N[C@@H](CCC(=O)O)C(=O)O)cc1` [N-[p-[N-(3,4-dihydro-2,7-dimethyl-4-oxoquinazolin-6-ylmethyl)-N-(prop-2-ynyl)amino]benzoyl]-L-glutamic acid] showed an IC50 (thymidylate synthetase) of 30 nM and an IC50 (L1210 cell line) of 180 nM.
